From patent publication US9050341B2, “Methods of treating drug resistant and other tumors by administering 6,7-dialkoxy quinazoline derivatives” (NATCO PHARMA LIMITED, priority 2009, dated 2015)

Tests used:
[1] = Acute oral toxicity (MTD) in Wistar rats; type: in vivo
[2] = 30 day repeated dose toxicity in beagle dogs; type: in vivo
Description: The methods followed were as per CPMP/SWP/1042/99 (July 2000) and ICH S3A (March (1995)) guidelines. Prior to the 30 day repeated dose study, a dose range finding study was conducted, which included single dose MTD study followed by a 10 day repeated dose study. […]. The route of dosing was oral, by gelatin capsule. Based on the results of the dose range finding study, doses for the 30 days study were selected.
The 30 day repeated dose study employed 12 male and 12 female dogs (Marshall's Farm, China). The dogs were acclimatized for a minimum period of 2 weeks and randomly divided into four main groups (G1-G4), each group comprising of 3 dogs per sex. The animals were dosed orally with capsules of NRC-2694A for a period of 30 consecutive days at dose levels of 10 mg/kg b.wt/day (G2-low dose), 20 mg/kg b.wt/day (G3-mid dose) and 40 mg/kg b.wt/day (G4-high dose). […]. The control group (G1-0 mg/kg b. wt/day) animals were dosed by oral capsule with placebo.
The study also tracked body weight (weekly), food consumption (daily), opthalmological status (start and end), hematological and biochemical analyses (start and end), toxicokinetics analysis of plasma (start and end). […]

[3] = tested on: Salmonella typhimurium (TA 98, TA 100, TA 102, TA 1535 and TA 1537); assay: Ames bacterial reverse mutation assay; settings: five tester strains, with or without S9
Description: The present study was conducted by the direct plate incorporation method with five tester strains of Salmonella typhimurium (TA 98, TA 100, TA 102, TA 1535 and TA 1537). […] Simultaneously, negative control cultures received DMSO and the respective positive controls received the mutagens 2-Amino anthracene, 2-Nitrofluorene, Sodium azide, 9-Aminoacridine and Mitomycin C (Sigma, St. Louis). In order to study the role of metabolic activation, cultures were incubated both with and without S9 mixture. The induction of Histidine positive colonies was computed and results were statistically treated for comparison.

[4] = Functional observational battery (FOB); type: in vivo, Wistar rats
Description: The study was conducted in accordance with “S7A Safety Pharmacology Studies for Human Pharmaceuticals, ICH” July 2001, and as per this study protocol. […] Rats that had been fasted for 16 to 18 hours (access to water was not interrupted) were dosed with the compound or water. The rats were administered the compound in an aqueous formulation at three levels, 75, 125 and 250 mg/kg b.wt, as a single oral dose by gavage. The control group received water. The rats were subjected to the FOB 60-120 min. after drug administration.
Animals were subjected to the FOB one at a time except for the multiple activity cage where four animals were placed in four different cages simultaneously. Once complete, the animals were returned to their home cage and the cage placed back on the stand.
The FOB can be employed to assess multiple neurobiological domains including neuromuscular (weakness, in coordination, gait and tremor), sensory (audition, vision and somatosensory), and autonomic (pupil response and salivation) functions. The measures of a neuro behavioral screening battery have been divided into specific functional domains. For example, Lacrimation, salivation, pupil response, palpebral closure, defecation and urination are measures of some aspects of the autonomic system. Similarly the neuro muscular domain can be assessed based on the gait/mobility score, landing foot splay, grip strength and righting reflex; sensorimotor domain based on response to tail pinch and click/touch/approach response; CNS excitability domain based on ease of removal and handling of the animal, clonic/tonic movements, arousal and vocalization; CNS activity domain based on home cage posture, palpebral closure, rearing and motor activity and finally the physiological domain is assessed based on the body weight, body temperature and piloerection.

[5] = Respiratory function, whole body plethysmograph; type: in vivo; settings: conscious male Wistar rats, 75, 125 and 250 mg/kg oral, 3 hours
Description: This study evaluated the effect of NRC-2694A monohydrochloride on respiratory function in conscious Wistar rats following administration of a single dose using a whole body plethysmograph. The study was conducted in accordance with “S7A Safety Pharmacology Studies for Human Pharmaceuticals, ICH” issued July 2001. The study used a parallel design with one vehicle and three test item treated groups. […] Male Wistar rats were placed in plethysmography chambers and baseline respiratory parameters were recorded for 30 minutes. Following drug administration respiratory parameters were recorded continuously for 3 hours.

[6] = Cardiovascular parameters in telemetered dogs; type: in vivo, Beagle dogs; settings: for cardiovascular parameters (blood pressure, pulse pressure, heart rate, QT and QTcf intervals): telemetered male Beagle dogs, 15, 30 and 60 mg/kg b.wt. oral
Description: The study was conducted in accordance with ICH “S7A Safety Pharmacology Studies for Human Pharmaceuticals, Note for Guidance on Safety Pharmacology Studies for Human Pharmaceuticals, July 2001”. The doses tested were 0, 15, 30 and 60 mg/kg b.wt. given orally by gelatin capsule. Four male Beagle dogs, each implanted with a TL1IM2-D70-PCT transmitter (Data Sciences International, USA), were used for the study. During the study, the dogs were administered 4 oral treatments representing placebo and all test substance treatment groups with a three day (˜72 hour) wash-out period between each administration, using a Latin square cross-over design.
On dosing days, the telemetered dogs were observed once before commencement of data collection, continuously through 2 hours post-dose remotely and ˜8 hours post-dose for changes in behaviour. Cardiovascular parameters (systolic, diastolic and mean blood pressure, pulse pressure and heart rate) were recorded continuously for ˜60 minutes before dosing and up to 24 hours after dosing. Systolic, diastolic and mean blood pressures, pulse pressure and heart rate were obtained from the femoral artery waveform. Electrocardiograms were recorded continuously for ˜60 minutes before dosing and up to 24 hours after dosing. Electrocardiograms were obtained from subcutaneously placed bio-potential leads in a Lead II configuration. Heart rate and QT intervals were determined from the ECG's.

ABL1 (T315I) = molecular target: T1, ABL1 (T315I) (Homo sapiens, UniProt P00519, T315I); assay: KinomeScan kinase profiling; type: binding
T1 construct: host or cells: E. coli host derived from BL21 (T7 phage lysate)

ACVRL1 = molecular target: T2, ACVRL1 (Homo sapiens, UniProt P37023); assay: KinomeScan kinase profiling; type: binding
T2 construct: host or cells: E. coli host derived from BL21 (T7 phage lysate)

CAMK2B = molecular target: T3, CAMK2B (Homo sapiens, UniProt Q13554); assay: KinomeScan kinase profiling; type: binding
T3 construct: purchased Ambit Biosciences Corp (KinomeScan); host or cells: E. coli host derived from the BL21 strain, T7 phage

DCAMKL1 = molecular target: T4, DCAMKL1 (Homo sapiens, UniProt O15075); assay: KinomeScan kinase profiling; type: binding
T4 construct: purchased Ambit Biosciences Corp (KinomeScan); host or cells: T7 phage in E. coli host derived from BL21

PAK6 = molecular target: T5, PAK6 (Homo sapiens, UniProt Q9NQU5); assay: KinomeScan kinase profiling; type: binding
T5 construct: host or cells: E. coli host derived from the BL21 strain, infected with T7 phage
T5 sequence (Q9NQU5 whole entry): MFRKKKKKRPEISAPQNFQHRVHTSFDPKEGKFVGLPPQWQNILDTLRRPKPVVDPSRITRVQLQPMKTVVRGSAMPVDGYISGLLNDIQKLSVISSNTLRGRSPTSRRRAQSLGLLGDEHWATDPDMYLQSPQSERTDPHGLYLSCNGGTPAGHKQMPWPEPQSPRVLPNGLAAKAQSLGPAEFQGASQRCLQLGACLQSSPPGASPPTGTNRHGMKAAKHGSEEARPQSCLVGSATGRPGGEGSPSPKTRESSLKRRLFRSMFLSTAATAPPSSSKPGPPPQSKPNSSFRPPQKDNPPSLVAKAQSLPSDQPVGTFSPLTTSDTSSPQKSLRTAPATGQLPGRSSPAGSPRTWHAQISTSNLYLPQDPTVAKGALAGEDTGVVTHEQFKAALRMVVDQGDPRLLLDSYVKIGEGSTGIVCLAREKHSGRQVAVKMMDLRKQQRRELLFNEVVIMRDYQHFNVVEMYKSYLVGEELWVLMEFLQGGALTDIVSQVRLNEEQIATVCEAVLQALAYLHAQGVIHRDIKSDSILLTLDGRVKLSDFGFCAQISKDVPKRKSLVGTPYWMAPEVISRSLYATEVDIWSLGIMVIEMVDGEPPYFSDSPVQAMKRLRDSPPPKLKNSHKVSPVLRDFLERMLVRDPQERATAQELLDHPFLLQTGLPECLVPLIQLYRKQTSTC

T4 sequence (O15075 whole entry): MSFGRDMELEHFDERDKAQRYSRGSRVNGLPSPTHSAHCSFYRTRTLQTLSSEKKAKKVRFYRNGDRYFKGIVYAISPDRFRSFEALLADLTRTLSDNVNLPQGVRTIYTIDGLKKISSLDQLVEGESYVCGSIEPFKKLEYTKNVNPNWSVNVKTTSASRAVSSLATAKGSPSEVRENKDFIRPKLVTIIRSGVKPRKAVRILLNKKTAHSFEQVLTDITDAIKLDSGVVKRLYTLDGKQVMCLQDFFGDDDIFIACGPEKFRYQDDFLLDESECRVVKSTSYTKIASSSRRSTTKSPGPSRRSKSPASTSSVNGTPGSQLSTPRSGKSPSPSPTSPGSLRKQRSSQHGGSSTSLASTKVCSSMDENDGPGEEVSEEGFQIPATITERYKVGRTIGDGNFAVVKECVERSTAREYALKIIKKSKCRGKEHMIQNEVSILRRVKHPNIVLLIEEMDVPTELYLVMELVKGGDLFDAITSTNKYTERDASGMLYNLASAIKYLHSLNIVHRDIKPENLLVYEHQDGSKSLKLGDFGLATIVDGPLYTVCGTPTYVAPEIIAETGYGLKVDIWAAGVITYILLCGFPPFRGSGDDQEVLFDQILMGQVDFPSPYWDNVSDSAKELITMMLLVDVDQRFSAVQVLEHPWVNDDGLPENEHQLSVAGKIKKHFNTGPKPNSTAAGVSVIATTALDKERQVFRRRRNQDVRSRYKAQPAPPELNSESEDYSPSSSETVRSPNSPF
T3 sequence (Q13554 whole entry): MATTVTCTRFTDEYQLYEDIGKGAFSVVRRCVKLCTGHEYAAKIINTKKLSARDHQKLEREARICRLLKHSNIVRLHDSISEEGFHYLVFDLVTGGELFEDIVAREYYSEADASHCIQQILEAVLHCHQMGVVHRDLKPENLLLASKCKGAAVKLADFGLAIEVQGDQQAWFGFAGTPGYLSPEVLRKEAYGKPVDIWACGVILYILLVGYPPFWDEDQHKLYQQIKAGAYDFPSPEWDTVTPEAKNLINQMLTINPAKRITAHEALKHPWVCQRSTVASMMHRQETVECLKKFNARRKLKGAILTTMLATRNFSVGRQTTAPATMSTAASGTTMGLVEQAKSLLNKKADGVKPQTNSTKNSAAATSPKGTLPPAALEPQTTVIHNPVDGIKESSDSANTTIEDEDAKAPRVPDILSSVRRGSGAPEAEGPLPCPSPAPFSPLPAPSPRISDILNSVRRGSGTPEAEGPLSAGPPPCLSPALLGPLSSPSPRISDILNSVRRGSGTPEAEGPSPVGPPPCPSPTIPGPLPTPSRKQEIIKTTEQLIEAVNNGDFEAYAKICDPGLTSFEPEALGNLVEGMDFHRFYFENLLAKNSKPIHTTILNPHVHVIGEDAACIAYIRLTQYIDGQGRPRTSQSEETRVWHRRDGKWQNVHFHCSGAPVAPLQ
T2 sequence (P37023 22-503): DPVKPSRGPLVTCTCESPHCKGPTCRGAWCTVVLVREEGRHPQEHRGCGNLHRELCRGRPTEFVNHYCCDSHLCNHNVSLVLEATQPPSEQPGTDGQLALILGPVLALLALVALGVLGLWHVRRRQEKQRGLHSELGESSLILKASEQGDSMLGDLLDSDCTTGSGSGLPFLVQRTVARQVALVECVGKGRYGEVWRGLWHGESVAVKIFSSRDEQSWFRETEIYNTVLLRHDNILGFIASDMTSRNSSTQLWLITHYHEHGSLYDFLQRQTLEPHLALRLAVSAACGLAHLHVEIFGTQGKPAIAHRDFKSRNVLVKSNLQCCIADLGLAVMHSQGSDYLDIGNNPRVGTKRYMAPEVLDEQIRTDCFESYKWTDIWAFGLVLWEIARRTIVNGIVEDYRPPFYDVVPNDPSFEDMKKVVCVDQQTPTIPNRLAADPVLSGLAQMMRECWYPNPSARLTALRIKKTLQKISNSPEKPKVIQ

C#Cc1cccc(Nc2ncnc3cc(OC)c(OCCCN4CCOCC4)cc23)c1.Cl [NRC-2694 monohydrochloride, N-(3-ethylnylphenyl)-7-methoxy-6-[3-(4-morpholinyl)propoxy]-4-quinazolinamine mono hydrochloride]
maximum tolerated dose (MTD) ([1]; acute oral gavage, Wistar rats): 1000 mg/kg body weight
gross pathological examination ([1]; rats): did not reveal any lesions of pathological significance, except minimal uterus distension in two female rats
chromodacryoorhea, incidence ([1]; rats, G4 1000 mg/kg body wt.): 10/10
mild to severe lethargy, incidence ([1]; rats, G4 1000 mg/kg body wt.): 10/10
piloerection, incidence ([1]; rats, G4 1000 mg/kg body wt.): 10/10
ptosis, incidence ([1]; rats, G4 1000 mg/kg body wt.): 4/10
weakness, incidence ([1]; rats, G4 1000 mg/kg body wt.): 1/10
body weight and percent body weight change ([1]; rats, mid and high dose, days 7 and 14): Statistically significant reduction
toxic signs ([1]; rats, oral gavage, 1000 mg/kg body weight (high dose)): marked toxic signs with reduction in body weight but devoid of any pathological lesions and mortality
major toxic signs or mortality ([1]; rats, oral gavage, 250 (low dose) and 500 mg/kg body weight (mid dose)): did not produce any major toxic signs or mortality
mortality ([1]; rats, oral, 250, 500 and 1000 mg/kg): No mortality
no observed adverse effect level (NOAEL) ([2]; beagle dogs, 30 days, orally by capsule): 10 mg/kg b.wt/day
symptoms of toxicity ([2]; dogs, low dose (G2) 10 mg/kg b.wt/day, 30 days): No symptoms of toxicity
mutagenicity in the Ames test [3]: non-mutagenic
adverse effects in the functional observational battery ([4]; Wistar rats, 75, 125 and 250 mg/kg b.wt single oral dose): did not show any adverse effects
influence on the parameters of the FOB ([4]; Wistar rats, 75, 125 and 250 mg/kg b.wt, 60-120 minutes post treatment): no influence on any of the parameters
respiratory parameters: respiratory rate, tidal volume, minute volume, and Penh [5]: did not influence any of the observed parameters
no observed effect level ([6]; cardiovascular parameters, male Beagle dogs, oral): 60 mg/kg b.wt.
cardiovascular parameters (blood pressure, pulse pressure, heart rate, QT and QTcf intervals) [6]: no significant negative effects

C#Cc1cccc(Nc2ncnc3cc(OC)c(OCCCN4CCOCC4)cc23)c1 [NRC-2694, N-(3-ethylnylphenyl)-7-methoxy-6-[3-(4-morpholinyl)propoxy]-4-quinazolinamine]
% Ctrl @ 10000 nM (ABL1 (T315I)): 35 % Ctrl
% Ctrl @ 10000 nM (ACVRL1): 91 % Ctrl
% Ctrl @ 10000 nM (CAMK2B): 77 % Ctrl
% Ctrl @ 10000 nM (DCAMKL1): 92 % Ctrl
% Ctrl @ 10000 nM (PAK6): 70 % Ctrl
MTD, mice compared with rats ([1]; rat, in vivo): the same in mice and rats
toxicity compared with Erlotinib ([2]; beagle dogs): significantly less toxic than Erlotinib HCl
mutagenicity in the Ames test [3]: not mutagenic
induction of His revertant colonies ([3]; 0.0125-1.2500 mg/plate): lack of statistically significant induction
neurotoxicity toward the central and peripheral nervous system ([4]; Wistar rats, FOB): no evidence of neurotoxicity
respiratory parameters: respiratory rate, tidal volume, minute volume, and Penh [5]: lacks toxicity against respiratory function
cardiovascular parameters (blood pressure, pulse pressure, heart rate, QT and QTcf intervals) [6]: lacks toxicity against cardiovascular function
